The values that follow come from patent publication US20150344427A1 (EPIZYME, INC., priority 2012, published 2015).

Molecules are shown by their SMILES.

In the assay the target is T1, EZH2 Y641F mutant (PRC2 enzyme) (Homo sapiens, UniProt Q15910, Y641F).
T1 construct: made in house; host or cells: Spodoptera frugiperda (sf9) cells, baculovirus
T1 sequence (Q15910 whole entry Y641F): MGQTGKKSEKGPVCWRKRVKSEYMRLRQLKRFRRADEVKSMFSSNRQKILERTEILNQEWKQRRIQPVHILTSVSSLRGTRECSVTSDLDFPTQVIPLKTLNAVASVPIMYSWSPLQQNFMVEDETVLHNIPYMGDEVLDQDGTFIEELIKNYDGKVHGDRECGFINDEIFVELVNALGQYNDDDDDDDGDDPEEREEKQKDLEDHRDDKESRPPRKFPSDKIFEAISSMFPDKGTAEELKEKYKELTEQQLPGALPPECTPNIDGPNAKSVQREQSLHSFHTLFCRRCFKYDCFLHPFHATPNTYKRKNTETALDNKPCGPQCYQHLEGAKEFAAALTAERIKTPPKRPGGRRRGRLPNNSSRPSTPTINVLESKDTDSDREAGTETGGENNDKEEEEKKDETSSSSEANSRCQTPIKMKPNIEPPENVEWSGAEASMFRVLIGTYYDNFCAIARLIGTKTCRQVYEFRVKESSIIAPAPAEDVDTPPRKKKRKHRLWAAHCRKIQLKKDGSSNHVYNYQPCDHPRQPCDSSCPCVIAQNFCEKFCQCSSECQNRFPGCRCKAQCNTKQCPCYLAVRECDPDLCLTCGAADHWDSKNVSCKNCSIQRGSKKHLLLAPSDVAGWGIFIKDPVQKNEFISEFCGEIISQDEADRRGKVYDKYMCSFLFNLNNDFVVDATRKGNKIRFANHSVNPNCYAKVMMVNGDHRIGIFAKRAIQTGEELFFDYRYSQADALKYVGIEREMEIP
T1 sequence (O75530 whole entry partner): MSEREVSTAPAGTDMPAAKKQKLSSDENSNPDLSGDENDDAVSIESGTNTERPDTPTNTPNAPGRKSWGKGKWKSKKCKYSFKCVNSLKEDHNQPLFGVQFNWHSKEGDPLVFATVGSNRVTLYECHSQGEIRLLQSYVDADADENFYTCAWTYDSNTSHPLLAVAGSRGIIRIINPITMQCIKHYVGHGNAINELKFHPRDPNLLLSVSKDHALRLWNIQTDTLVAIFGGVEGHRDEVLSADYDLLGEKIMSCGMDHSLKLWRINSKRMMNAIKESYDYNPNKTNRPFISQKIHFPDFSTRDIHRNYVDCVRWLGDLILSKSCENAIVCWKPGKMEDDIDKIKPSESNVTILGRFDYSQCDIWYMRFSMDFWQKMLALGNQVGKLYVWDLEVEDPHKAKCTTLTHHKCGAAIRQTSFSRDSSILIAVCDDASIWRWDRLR
T1 sequence (Q15022 whole entry partner): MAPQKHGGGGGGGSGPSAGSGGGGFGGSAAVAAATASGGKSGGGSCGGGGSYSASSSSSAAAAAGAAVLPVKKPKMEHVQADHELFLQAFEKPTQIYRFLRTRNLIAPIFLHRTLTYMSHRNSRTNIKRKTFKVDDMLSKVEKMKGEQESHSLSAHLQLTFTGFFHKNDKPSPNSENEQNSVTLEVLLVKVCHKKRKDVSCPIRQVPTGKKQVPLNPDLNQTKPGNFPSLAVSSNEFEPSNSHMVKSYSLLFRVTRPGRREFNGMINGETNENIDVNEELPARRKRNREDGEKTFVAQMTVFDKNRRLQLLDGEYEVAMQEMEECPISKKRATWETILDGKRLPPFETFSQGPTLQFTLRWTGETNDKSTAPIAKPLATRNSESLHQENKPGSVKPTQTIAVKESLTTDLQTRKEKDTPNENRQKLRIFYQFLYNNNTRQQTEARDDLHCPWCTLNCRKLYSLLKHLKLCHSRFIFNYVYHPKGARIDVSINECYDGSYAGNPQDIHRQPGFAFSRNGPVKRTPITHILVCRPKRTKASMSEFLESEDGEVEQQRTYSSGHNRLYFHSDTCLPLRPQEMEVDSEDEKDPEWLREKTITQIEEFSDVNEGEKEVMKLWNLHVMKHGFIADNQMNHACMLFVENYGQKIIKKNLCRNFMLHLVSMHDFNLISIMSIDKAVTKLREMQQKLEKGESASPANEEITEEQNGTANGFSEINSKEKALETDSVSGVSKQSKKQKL
T1 sequence (Q09028 whole entry partner): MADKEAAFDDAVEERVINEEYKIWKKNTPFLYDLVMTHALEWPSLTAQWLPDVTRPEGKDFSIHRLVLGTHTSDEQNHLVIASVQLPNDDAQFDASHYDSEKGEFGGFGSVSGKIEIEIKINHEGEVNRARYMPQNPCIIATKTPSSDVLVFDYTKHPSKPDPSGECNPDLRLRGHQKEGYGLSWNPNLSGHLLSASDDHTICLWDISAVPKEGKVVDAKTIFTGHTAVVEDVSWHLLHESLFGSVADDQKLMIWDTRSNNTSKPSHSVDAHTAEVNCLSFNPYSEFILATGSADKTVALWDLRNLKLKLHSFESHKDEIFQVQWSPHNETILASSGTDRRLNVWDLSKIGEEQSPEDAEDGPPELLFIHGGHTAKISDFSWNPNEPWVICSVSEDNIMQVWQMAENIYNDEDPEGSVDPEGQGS
Description: PRC2 enzyme assay on peptide substrate, EZH2 Y641F mutant. It counts as biochemical. The note with it: Y641F mutant PRC2 enzyme 4 nM, H3K27me2 peptide, 3H-SAM Flashplate. The source says: General Materials. S-adenosylmethionine (SAM), S-adenosylhomocyteine (SAH), bicine, KCl, Tween20, dimethylsulfoxide (DMSO) and bovine skin gelatin (BSG) were purchased from Sigma-Aldrich at the highest level of purity possible. Dithiothreitol (DTT) was purchased from EMD. ^3H-SAM was purchased from American Radiolabeled Chemicals with a specific activity of 80 Ci/mmol. 384-well streptavidin Flashplates were purchased from PerkinElmer.
Peptides representative of human histone H3 residues 21-44 containing either an unmodified lysine 27 (H3K27me0) or dimethylated lysine 27 (H3K27me2) were synthesized with a C-terminal G(K-biotin) linker-affinity tag motif and a C-terminal amide cap by 21st Century Biochemicals. […] The sequences are listed below.
Human PRC2 enzymes were purified as 4-component enzyme complexes co-expressed in Spodoptera frugiperda (sf9) cells using a baculovirus expression system. […] The EED subunit contained an N-terminal FLAG tag that was used to purify the entire 4-component complex from sf9 cell lysates.
The assays were all performed in a buffer consisting of 20 mM bicine (pH=7.6), 0.5 mM DTT, 0.005% BSG and 0.002% Tween20, prepared on the day of use. Compounds in 100% DMSO (1 μL) were spotted into polypropylene 384-well V-bottom plates (Greiner) using a Platemate 2×3 outfitted with a 384-channel pipet head (Thermo). DMSO (1 μL) was added to columns 11, 12, 23, 24, rows A-H for the maximum signal control, and SAH, a known product and inhibitor of PRC2 (1 μL) was added to columns 11,12, 23, 24, rows I-P for the minimum signal control. A cocktail (40 μL) containing the wild-type PRC2 enzyme and H3K27me0 peptide or any of the Y641 mutant enzymes and H3K27me2 peptide was added by Multidrop Combi (Thermo). The compounds were allowed to incubate with PRC2 for 30 min at 25° C., then a cocktail (10 μL) containing a mixture of non-radioactive and ^3H-SAM was added to initiate the reaction (final volume=51 μL). In all cases, the final concentrations were as follows: wild-type or mutant PRC2 enzyme was 4 nM, SAH in the minimum signal control wells was 1 mM and the DMSO concentration was 1%. The assays were stopped by the addition of non-radioactive SAM (10 μL) to a final concentration of 600 μM, which dilutes the ^3H-SAM to a level where its incorporation into the peptide substrate is no longer detectable. 50 μL of the reaction in the 384-well polypropylene plate was then transferred to a 384-well Flashplate and the biotinylated peptides were allowed to bind to the streptavidin surface for at least 1 h before being washed three times with 0.1% Tween20 in a Biotek ELx405 plate washer. The plates were then read in a PerkinElmer TopCount platereader to measure the quantity of ^3H-labeled peptide bound to the Flashplate surface, measured as disintegrations per minute (dpm) or alternatively, referred to as counts per minute (cpm).
Where dpm=disintegrations per minute, cmpd=signal in assay well, and min and max are the respective minimum and maximum signal controls.
Where top and bottom are the normally allowed to float, but may be fixed at 100 or 0 respectively in a 3-parameter fit. The Hill Coefficient normally allowed to float but may also be fixed at 1 in a 3-parameter fit. Y is the % inhibition and X is the compound concentration.
In the case of `CCN(c1cc(Cl)cc(C(=O)NCc2c(C)[nH]c(C)cc2=O)c1C)[C@H]1CC[C@H](N(C)C)CC1` [Compound 1, 5-chloro-N-((2,6-dimethyl-4-oxo-1,4-dihydropyridin-3-yl)methyl)-3-(((trans)-4-(dimethylamino)cyclohexyl)(ethyl)amino)-2-methylbenzamide], 40 nM corresponded to half-maximal inhibition (IC50).
Turning to `CCN(c1cc(Cl)cc(C(=O)NCc2c(C)n(C)c(C)cc2=O)c1C)[C@H]1CC[C@H](N(C)C)CC1` [Compound 86], the IC50 – broadly, the concentration that gives 50% inhibition – is more than 50000 nM.
`CCn1c(C)cc(=O)c(CNC(=O)c2cc(Cl)cc(N(CC)[C@H]3CC[C@H](N(C)C)CC3)c2C)c1C` [Compound 87]: the IC50 turned out to be 37400 nM.
Compound `CCN(c1cc(-c2ccc(COC)nc2)cc(C(=O)NCc2c(Cl)[nH]c(C)cc2=O)c1C)[C@H]1CC[C@H](N(C)C)CC1` [Compound 88] showed an IC50 of 46 nM.
For the compound `CCN(c1cc(-c2cnn(C)c2)cc(C(=O)NCc2c(Cl)[nH]c(C)cc2=O)c1C)[C@H]1CC[C@H](N(C)C)CC1` [Compound 89], the half-maximal inhibitory concentration (IC50) stood at 229 nM.
The compound `CCN(c1cc(-c2ccc(C)nc2)cc(C(=O)NCc2c(Cl)[nH]c(C)cc2=O)c1C)[C@H]1CC[C@H](N(C)C)CC1` [Compound 90] had a 50% inhibitory concentration (IC50) of 40 nM.
`CCN(c1cc(-c2cnc(C)cn2)cc(C(=O)NCc2c(Cl)[nH]c(C)cc2=O)c1C)[C@H]1CC[C@H](N(C)C)CC1` [Compound 91] showed an IC50 of 49 nM.
Turning to `CCN(c1cc(-c2ccc(OCCOC)cc2)cc(C(=O)NCc2c(Cl)[nH]c(C)cc2=O)c1C)[C@H]1CC[C@H](N(C)C)CC1` [Compound 92], the IC50 came to 23 nM.
`CCN(c1cc(-c2ccc(OCCOC)cc2)cc(C(=O)NCc2c(C)[nH]c(C)cc2=O)c1C)[C@H]1CC[C@H](N(C)C)CC1` [Compound 93] registered an IC50 of 5 nM.
On to `CCCN(c1cc(-c2ccc(OCCOC)cc2)cc(C(=O)NCc2c(C)[nH]c(C)cc2=O)c1C)[C@H]1CC[C@H](N(C)C)CC1` [Compound 94], for which the IC50 came out at 7 nM.
With `CCN(c1cc(-c2ccc(OCCOC)cc2)cc(C(=O)NCc2c(C)[nH]c(C)cc2=O)c1C)[C@H]1CC[C@H](N(C)CCOC)CC1` [Compound 100], the half-maximal inhibitory concentration (IC50) worked out at 18 nM.
